Measurements: article PMC317294 (BMC Pharmacology, 2003)

Assays:
[1] = target: T1, human mu opioid receptor (hMOR) (Homo sapiens, UniProt P35372); type: cell-based
Ala^348,353 hMOR [2] = target: T2, Ala^348,353 hMOR (Homo sapiens, UniProt P35372, C348A/C353A); type: cell-based
[3] = target: T1, human mu opioid receptor (hMOR); assay: biochemical; conditions: read-out: maximal efficacy as percentage of stimulation above basal levels
Ala^348,353 hMOR [4] = target: T2, Ala^348,353 hMOR; assay: biochemical; conditions: read-out: maximal efficacy as percentage of stimulation above basal levels
Ala^348,353 hMOR [5] = target: T2, Ala^348,353 hMOR; type: binding

T2 sequence (P35372 whole entry C348A/C353A): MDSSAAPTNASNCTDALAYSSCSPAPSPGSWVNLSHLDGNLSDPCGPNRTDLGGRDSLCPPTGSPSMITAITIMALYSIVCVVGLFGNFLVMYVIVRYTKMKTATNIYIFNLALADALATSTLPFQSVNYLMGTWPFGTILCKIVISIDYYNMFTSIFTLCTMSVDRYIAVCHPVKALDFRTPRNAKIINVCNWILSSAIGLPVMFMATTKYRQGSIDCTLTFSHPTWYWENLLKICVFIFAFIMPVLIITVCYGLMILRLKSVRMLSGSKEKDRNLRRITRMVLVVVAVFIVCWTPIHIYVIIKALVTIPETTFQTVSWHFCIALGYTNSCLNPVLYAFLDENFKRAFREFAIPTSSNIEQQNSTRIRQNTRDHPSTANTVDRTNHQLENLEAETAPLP
T1 sequence (P35372 whole entry): as the sequence (P35372 whole entry C348A/C353A) above, with A348C, A353C counted along it

## COc1cccc2c1[C@]13CCN(CC4CC4)[C@H](C2)[C@]1(OC)CCC(=O)C3 [Cyprodime]
[1]
  hMOR expression level after ligand treatment: 103 ± 9%
Ala^348,353 hMOR [2]
  Ala^348,353 hMOR expression level after ligand treatment: 245 ± 20%

## C[C@@H](NC(=O)[C@@H](N)Cc1ccc(O)cc1)C(=O)NCC(=O)N(C)[C@@H](Cc1ccccc1)C(=O)NCCO [DAMGO, [D-Ala^2, N-Me-Phe^4, Gly^5-ol]-enkephalin]
[3]
  Emax: 366 ± 23%
Ala^348,353 hMOR [4]
  Emax: 164 ± 6%

## C[C@@H](NC(=O)[C@@H](N)Cc1ccc(O)cc1)C(=O)N[C@@H](Cc1ccccc1)C(=O)NCC(=O)N[C@@H](Cc1ccc(O)cc1)C(=O)N1CCC[C@H]1C(=O)N[C@@H](CO)C(N)=O [Dermorphin]
Ala^348,353 hMOR [5]
  increase in binding affinity for Ala^348,353 hMOR compared to hMOR: approximately 20 fold
